Here are results for 31 molecules from ChEMBL document CHEMBL5036373, “Enantiopure Benzofuran-2-carboxamides of 1-Aryltetrahydro-β-carbolines Are Potent Antimalarials In Vitro” (ACS Med Chem Lett, 2022).

The subject of series [1] is Plasmodium falciparum. Briefly: Antiplasmodial activity against chloroquine, pyrimethamine and mefloquine-resistant asexual blood stage of Plasmodium falciparum Dd2 assessed as reduction in parasite growth after 72 hrs by SYBR green I staining based fluorescence assay. The format is functional, organism-based. Particulars: Dd2, 72 h.
Series [2] has as its system Plasmodium falciparum. Briefly: Antiplasmodial activity against chloroquine, pyrimethamine and mefloquine-sensitive asexual blood stage of Plasmodium falciparum 3D7 assessed as reduction in parasite growth after 72 hrs by SYBR green I staining based fluorescence assay. The format is functional, organism-based. Particulars: 3D7, 72 h.
A short description of series [3]: Stability in CD-1 mouse plasma measured after 60 mins LC-MS analysis. Conditions: read-out: Stability. The format is ADME, cell-free.
Series [4] can be described thus: AUC(0 to 24) in rat at 40 mg/kg, po. In kind it is ADME, organism-based. Conditions: in vivo. On the set-up: time < 24 hr, route oral, dose 40 mg/kg.
The nature of series [5]: Half life in rat plasma at 40 mg/kg, po. The format is ADME, organism-based.
The subject of another series is Escherichia coli. Kind of series: Antibacterial activity against Escherichia coli BL21 (DE3) cells assessed as inhibition of bacterial growth measured after 18 hrs measured by cell density meter. The format is functional.
Series [6] is described as follows: Plasma protein binding in CD-1 mouse at 1 to 10 uM by LC-MS analysis. The format is ADME, cell-free. Conditions: dose 1-10 µM, read-out: PPB.
The nature of series [7]: Cytotoxicity against human HEK293 cells assessed as reduction in cell viability incubated for 24 hrs by resazurin dye based fluorescence assay. For orientation: Alamar Blue is a resazurin reagent that responds to reducing activity.
Series [8] can be described thus: Stability in mouse hepatocyte assessed as half life measured after 120 mins by LC-MS analysis. Particulars: hepatocytes. In kind it is ADME, tissue-based.
A short description of series [9]: Cytotoxicity against human primary hepatocytes assessed as reduction in cell viability incubated for 24 hrs by DAPI staining based fluorescence assay. On the set-up: species or system Hepatocyte.
Series [10] is described as follows: Stability in CD-1 mouse liver microsomes assessed as half life measured after 60 mins in presence of NADPH LC-MS analysis. The format is ADME, Microsome. (In general: Liver microsomes are a subcellular fraction often used to study metabolism.)
Series [11] in a line: Oral bioavailability in rat. In kind it is ADME, organism-based. Conditions: in vivo.
For another series, the system named is Plasmodium berghei. Kind of series: In vivo antimalarial activity against blood stage transgenic Plasmodium berghei ANKA strain (PbGFP-Luccon) infected in swiss Webster mouse assessed as supression of parasitemia at 40 mg/kg, po administered once daily starting from day 2 to 6 post infection and measured at day 7 by luciferase substrate based imaging analysis. In kind it is functional, organism-based. Conditions: time 5.0 day.

The nature of series [12]: Partition coefficient, logD between 1-octanol and pH 7.4 PBS by LC-MS analysis. In kind it is physicochemical. Conditions: 1-octanol/PBS.
A short description of series [13]: Solubility of the compound in pH 7.4 PBS buffer by LC-MS analysis. The format is physicochemical.

Structures are written as SMILES. pEC50: −log10 of the molar value. Activity calls are given as the source filed them. The rule behind the calls is not given here.

In general, pEC50 refers to the EC50 on a negative log10 scale, so that one unit is a factor of ten. For the molecule `Clc1ccc(C2NCCc3c2[nH]c2ccccc32)cc1` (racemic), the pEC50 with Plasmodium falciparum [1] is 5.30.
As for `CCOc1ccc([C@@H]2c3[nH]c4ccccc4c3CCN2C(=O)c2nc3cc(Br)ccc3[nH]2)cc1`, the pEC50 in the series on Plasmodium falciparum [1] is 6.20.
On to `Cc1ccc2oc(C(=O)N3CCc4c([nH]c5ccccc45)[C@H]3c3ccc(Cl)cc3)cc2c1`, for which the pEC50 in the series with Plasmodium falciparum [1] is 6.70.
Same read-out and setting: under `O=C(c1ccccc1)N1CCc2c([nH]c3ccccc23)C1c1ccc(Cl)cc1` (racemic) stands 5.60.
On to `CCOc1ccc([C@@H]2c3[nH]c4ccccc4c3CCN2C(=O)c2cc3cc(F)ccc3o2)cc1`, for which, in the series on Plasmodium falciparum [1], the pEC50 was 6.91.
For `O=C(c1ccc(Cl)c(Cl)c1)N1CCc2c([nH]c3ccccc23)C1c1ccc(Cl)cc1` (racemic), in the series on Plasmodium falciparum [1], the pEC50 was 5.91.
`CC(=O)N1CCc2c([nH]c3ccccc23)C1c1ccc(Cl)cc1` (racemic): the negative logarithm of the EC50 (pEC50) in the series on Plasmodium falciparum [1] was 5.60.
In the case of `O=C(c1cc2cc(Br)ccc2o1)N1CCc2c([nH]c3ccccc23)[C@H]1c1ccccc1`, the negative-log EC50 (pEC50) in the series with Plasmodium falciparum [1] is 6.34.
Same read-out and setting: under `CCOc1ccc([C@@H]2c3[nH]c4ccccc4c3CCN2C(=O)c2cc3cc(Cl)ccc3[nH]2)cc1` stands 5.90; under `O=C(c1cc2cc(Br)ccc2o1)N1CCc2c([nH]c3ccccc23)[C@H]1c1ccc(Br)cc1`, 6.62; under `O=C(CCC1CCCC1)N1CCc2c([nH]c3ccccc23)C1c1ccc(Cl)cc1` (racemic), 6.14.
For `O=C(c1cc2ccccc2o1)N1CCc2c([nH]c3ccccc23)[C@H]1c1ccc(Cl)cc1`, the negative logarithm of the EC50 (pEC50) in the series with Plasmodium falciparum [1] is 5.90.
In the case of `N#Cc1ccc([C@@H]2c3[nH]c4ccccc4c3CCN2C(=O)c2cc3cc(Br)ccc3o2)cc1`, in the series with Plasmodium falciparum [1], the pEC50 is 6.67.
`O=C(c1cc2cc(Cl)ccc2o1)N1CCc2c([nH]c3ccccc23)[C@H]1c1ccc(Cl)cc1`: the pEC50 is 6.52 in the series on Plasmodium falciparum [2] and 6.76 in the series with Plasmodium falciparum [1].
As to `CCOc1ccc([C@@H]2c3[nH]c4ccccc4c3CCN2C(=O)c2nc3cc(Br)ccc3o2)cc1`, the pEC50 with Plasmodium falciparum [2] was 6.03; with Plasmodium falciparum [1] it was 6.11.
On to `O=C(c1cc2cc(Cl)ccc2o1)N1CCc2c([nH]c3ccccc23)[C@H]1c1ccc(Br)cc1`, for which the pEC50 in the series with Plasmodium falciparum [1] was 6.71.
As to `O=C(c1ccc(Br)cc1)N1CCc2c([nH]c3ccccc23)C1c1ccc(Cl)cc1` (racemic), the pEC50 with Plasmodium falciparum [1] is 6.17.
As to `CCOc1ccc([C@@H]2c3[nH]c4ccccc4c3CCN2C(=O)c2cc3cc(Cl)ccc3o2)cc1`, the pEC50 in the series with Plasmodium falciparum [2] was 6.76; in the series with Plasmodium falciparum [1], 6.89.
What is called AUC is the area under the concentration-time curve, a measure of exposure. The low end stands for less exposure, the high end for more exposure. What is called half-life is how long it takes for the measured level to halve. The MIC is the lowest concentration that inhibits growth of the organism. In general, CC50 refers to the concentration giving 50% cytotoxicity. A word on the bioavailability: it is the share of a dose that reaches the circulation, judged against a reference dose that is usually intravenous. A higher bioavailability goes with much systemic uptake. The logD is lipophilicity at a set pH, counting ionised and neutral species. Low values mean lower lipophilicity, high ones higher lipophilicity. By solubility is commonly meant how much of the substance goes into solution per volume. Low values mean a poorly soluble substance, high ones a readily soluble substance. Take `O=C(c1cc2cc(Br)ccc2o1)N1CCc2c([nH]c3ccccc23)[C@H]1c1ccc(Cl)cc1`: the remaining at 1 h in series [3] stood at 100%. In addition, the exposure (AUC) at 24 h in [4] is 28200 ng·h/mL. Moreover, the negative-log EC50 (pEC50) was 6.74 with Plasmodium falciparum [2] and 6.81 in the series on Plasmodium falciparum [1]. In addition, the half-life in series [5] was 480 min; in series [8], 175 min; in series [10], 79 min. The minimum inhibitory concentration (MIC) with Escherichia coli was more than 25 µM. Besides, in series [6], the fraction unbound at up to 10 µM was less than 0.001. Moreover, the CC50 at 24 h in [7] was more than 50 µM; in series [9] it was more than 10 µM. Moreover, in [11], the bioavailability worked out at 11%. For the same molecule, the result in the series with Plasmodium berghei was inactive. This molecule gave a logD in [12] of more than 5. The same molecule came in with a solubility in series [13] of less than 44 nM.
Consider `COc1ccc(C(=O)N2CCc3c([nH]c4ccccc34)C2c2ccc(Cl)cc2)cc1` (racemic), for which the pEC50 with Plasmodium falciparum [1] is 5.90.
Same read-out and setting: under `O=C(c1cc2ccc(Br)cc2o1)N1CCc2c([nH]c3ccccc23)[C@H]1c1ccc(Cl)cc1` stands 6.10.
Still for that read-out and setting: under `CCOc1ccc([C@H]2c3[nH]c4ccccc4c3CCN2C(=O)c2cc3cc(Br)ccc3o2)cc1` stands 6.20; under `CCOc1ccc([C@@H]2c3[nH]c4ccccc4c3CCN2C(=O)c2cc3ccccc3o2)cc1`, 5.90.
`CCOc1ccc([C@@H]2c3[nH]c4ccccc4c3CCN2C(=O)c2cc3cc(Br)ccc3o2)cc1`: the pEC50 is 6.92 in the series with Plasmodium falciparum [2] and 6.86 in the series on Plasmodium falciparum [1].
For the molecule `O=C(c1cc2cc(Br)ccc2o1)N1CCc2c([nH]c3ccccc23)C1c1ccc(Cl)cc1` (racemic), in the series with Plasmodium falciparum [1], the pEC50 was 6.73.
Turning to `CCN(CC)CCCC(C)Nc1ccnc2cc(Cl)ccc12` (stereo not drawn) [CHLOROQUINE], the negative-log EC50 (pEC50) with Plasmodium falciparum [2] is 8.15; in the series on Plasmodium falciparum [1] it was 6.50. Also, the result with Plasmodium berghei was Active.
Take `O=C(c1cc2cc(Br)ccc2o1)N1CCc2c([nH]c3ccccc23)[C@H]1c1ccc(F)cc1`: the pEC50 in the series on Plasmodium falciparum [1] is 6.68.
For `C[C@@H]1CC[C@H]2[C@@H](C)C(=O)O[C@@H]3O[C@@]4(C)CC[C@@H]1[C@]32OO4` [ARTEMISININ], the negative logarithm of the EC50 (pEC50) with Plasmodium falciparum [2] is 8.00; in the series with Plasmodium falciparum [1] it was 7.96.
In the same order, the values of `O=C(c1cc2cc(Br)ccc2o1)N1CCc2c([nH]c3ccccc23)[C@@H]1c1ccc(Cl)cc1` are 7.82 and 7.55.
As for `O=C(c1cc2cc(Cl)ccc2o1)N1CCc2c([nH]c3ccccc23)[C@H]1c1ccc(F)cc1`, the negative-log EC50 (pEC50) with Plasmodium falciparum [1] was 6.84.
For `O=C(c1cc2cc(Cl)ccc2[nH]1)N1CCc2c([nH]c3ccccc23)[C@H]1c1ccc(Cl)cc1`, the pEC50 with Plasmodium falciparum [1] was 5.90.
